In patent US9527857B2, “HSPC-sparing treatments for RB-positive abnormal cellular proliferation” (G1 Therapeutics, Inc., priority 2013, dated 2016):
Entries after “also recorded” stand apart in the source; their conditions may differ.

Columns and labels:
[1] = system: MMTV-c-neu (Rb-positive) tumors; assay: MMTV-c-neu HER2-driven (Rb-positive) luminal breast cancer mouse model; assay type: in vivo, mice
Excerpt: A HER2-driven model (Rb-positive) of breast cancer (Muller W J, Sinn E, Pattengale P K, Wallace R, Leder P. Single-step induction of mammary adenocarcinoma in transgenic mice bearing the activated c-neu oncogene. Cell 1988; 54: 105-15), that expresses c-neu (the mouse ortholog of human HER2) driven by the MMTV promoter was used in the following example. This model was chosen because previous studies in murine (Yu Q, Geng Y, Sicinski P. Specific protection against breast cancers by cyclin D1 ablation. Nature 2001; 411: 1017-21; Landis M W, Pawlyk B S, Li T, Sicinski P, Hinds P W. Cyclin D1-dependent kinase activity in murine development and mammary tumorigenesis. Cancer Cell 2006; 9: 13-22; Reddy H K, Mettus R V, Rane S G, Grana X, Litvin J, Reddy E P. Cyclin-dependent kinase 4 expression is essential for neu-induced breast tumorigenesis. Cancer Res 2005; 65: 10174-8; Yu Q, Sicinska E, Geng Y, Ahnstrom M, Zagozdzon A, Kong Y, et al. Requirement for CDK4 kinase function in breast cancer. Cancer Cell 2006; 9: 23-32.) and human HER2-positive breast cancer (An H X, Beckmann M W, Reifenberger G, Bender H G, Niederacher D. Gene amplification and overexpression of CDK4 in sporadic breast carcinomas is associated with high tumor cell proliferation. Am J Pathol 1999; 154: 113-8; Samady L, Dennis J, Budhram-Mahadeo V, Latchman DS. Activation of CDK4 gene expression in human breast cancer cells by the Brn-3b POU family transcription factor. Cancer Biol Ther 2004; 3: 317-23; Takano Y, Takenaka H, Kato Y, Masuda M, Mikami T, Saegusa M, et al. Cyclin D1 overexpression in invasive breast cancers: correlation with cyclin-dependent kinase 4 and oestrogen receptor overexpression, and lack of correlation with mitotic activity.
MMTV-neu mice were generated and observed post-lactation, with tumors observed with a median latency of approximately 25 weeks. Mice were enrolled in therapy studies when tumors reached a standard size (50-60 mm3) that permitted easy serial assessment. […] Tumor volumes were calculated by the formula, Volume=[(width)^2×length]/2. Tumor-bearing mice were euthanized at the indicated times due to predefined morbidity, tumor ulceration, or a tumor size of more than 1.5 cm in diameter.
Tumors were serially assessed weekly using caliper measurements. Therapeutic intervention began once tumors reached 40-64 mm^3. Tumor volume was calculated using the formula […]. All three compounds were administered orally via medicated diets (100 mg/kg/d). Medicated diets were administered for 28 consecutive days and then stopped. RECIST criteria were used to assess objective response rates.

[2] = system: MCF7 (breast adenocarcinoma, Rb-positive); assay: Cellular proliferation assay (CellTiter-Glo), MCF7; assay type: cell-based
Description: The MCF7 cells were seeded in Costar (Tewksbury, Mass.) 3903 96 well tissue culture treated white walled/clear bottom plates. A nine point dose response dilution series from 10 uM to 1 nM was performed and cell viability was determined after six days of compound treatment as indicated using the CellTiter-Glo® luminescent cell viability assay (CTG; Promega, Madison, Wis., United States of America) following the manufacturer's recommendations. Plates were read on a BioTek (Winooski, Vt.) Syngergy2 multi-mode plate reader. The Relative Light Units (RLU) were plotted as a result of variable molar concentration and data was analyzed using Graphpad (LaJolla, Calif.) Prism 5 statistical software to determine the EC50 for each compound.
Cellular proliferation assays were conducted using the following cancer cell lines: MCF7 (breast adenocarcinoma—Rb-positive), ZR-75-1 (breast ductal carcinoma—Rb-positive), H69 (human small cell lung cancer—Rb-negative) cells, or A2058 (human metastatic melanoma cells—Rb-negative). These cells were seeded in Costar (Tewksbury, Mass.) […] 96 well tissue culture treated white walled/clear bottom plates. Cells were treated with the compounds of Table 1 as nine point dose response dilution series from 10 uM to 1 nM. Cells were exposed to compounds and then cell viability was determined after either four (H69) or six (MCF7, ZR75-1, A2058) days as indicated using the CellTiter-Glo® luminescent cell viability assay (CTG; Promega, Madison, Wis., United States of America) following the manufacturer's recommendations. Plates were read on BioTek (Winooski, Vt.) Syngergy2 multi-mode plate reader. The Relative Light Units (RLU) were plotted as a result of variable molar concentration and data was analyzed using Graphpad (LaJolla, Calif.) Prism 5 statistical software to determine the EC50 for each compound.

[3] = system: Rb phosphorylation at Ser780 and Ser807/811 in tHS68 and WM2664; assay: Rb phosphorylation western blot, CDK4/6-dependent cell lines; assay type: cell-based; settings: 300 nM; 4, 8, 16, 24 hours
Description: MAPK levels are shown as a control for protein levels. Following treatment, cells were harvested and analyzed for Rb-phosphorylation by western blot analysis.
The CDK4/6-cyclin D complex is essential for progression from G1 to the S-phase of the DNA cell cycle. This complex phosphorylates the retinoblastoma tumor suppressor protein (Rb). […] Samples were lysed and protein was assayed by western blot analysis. Rb phosphorylation was measured at two sites targeted by the CDK4/6-cyclin D complex, Ser780 and Ser807/811 using species specific antibodies.

[4] = system: tHS68 cells (CDK4/6-dependent, Rb-positive); assay: Cell cycle arrest (propidium iodide flow cytometry), tHS68; assay type: cell-based; settings: 24 hours
Excerpt: To test the ability of CDK4/6 inhibitors to induce a clean G1-arrest, a cell based screening method was used consisting of two CDK4/6-dependent cell lines (tHS68 and WM2664; Rb-positive) and one CDK4/6-independent (A2058; Rb-negative) cell line. […] At the conclusion of the experiment, cells were harvested, fixed, and stained with propidium iodide (a DNA intercalator), which fluoresces strongly red (emission maximum 637 nm) when excited by 488 nm light. Samples were run on Dako Cyan flow cytometer and >10,000 events were collected for each sample. Data were analyzed using FlowJo 2.2 software developed by TreeStar, Inc.

CN1CCN(c2ccc(Nc3ncc4cc5n(c4n3)C3(CCCCC3)CNC5=O)nc2)CC1 [T]
tumor volume during a 28 day course of therapy ([1]; 100 mg/kg/d in chow, listed as Compound T): marked reduction in tumor volume
tumor volume during a 28 day course of therapy ([1]; 100 mg/kg/d in chow, listed as compound T): marked decrease in tumor volume
objective response rate ([1]; 100 mg/kg/day medicated diet, 28 days, RECIST criteria): 100%
tumor volume during a 28 day course of therapy ([1]; 150 mg/kg/d in chow): marked reduction in tumor volume
activity against MCF-7 cells compared with PD0332991 (FIG. 21) [2]: more potent activity against MCF-7 cells than PD0332991
inhibition of cellular proliferation of MCF-7 cells (FIGS. 21-24) [2]: significant inhibition of cellular proliferation
Rb phosphorylation in CDK4/6-dependent cell lines (tHS68, WM2664) [3]: blocks Rb phosphorylation in Rb-dependent cell lines by 16 hours post exposure; also recorded: reduced Rb-phosphorylation starting 16 hours after treatment
cell cycle distribution after treatment ([4]; 300 nM, tHS68): causes a loss of the S-phase peak
S-phase cells at the highest concentration shown ([4]; tHS68 cells, 28% at baseline): 6%
